Key:
Assay type in all cases: in vivo
[1] = system: CD1 male mice; test: Mice forced swimming test; conditions: for forced swimming immobility time within 4 minutes: blank control 111.96±14.58 s, mean±SE, P<0.05
From the text: “Immobility” herein refers to that “animals stop struggling in the water, or stay in a floating state, only showing nostrils for breathing with only small body movement to keep the head floating on the water”. Before the test, the drugs to be screened are given. The animals in the condition of forced swimming cannot escape from the harsh environment, leading to despairing animal behaviors. […] Laboratory Animal: CD1 mice, male, provided by Beijing Vital River Laboratories (VRL) (License No.: SCXK (Beijing), 2011-0011). Animals were kept in separate cages a week before test, with a light and shade cycle of 12 h/12 h, at room temperature 20° C.˜22° C., and with free access to water and food. Feed is provided by Laboratory Animal Center, Institute of Genetics and Developmental Biology, Chinese Academy of Sciences. CD1 mice, 7 weeks old, 25 g-35 g, were used for test after acclimating for 1 week. Mice were divided into 5 groups randomly, 8 mice for each. They were treated in the same way as Example 1: Drugs were delivered at 10 a.m. by intraperitoneal injection, once a day for 3 days, then forced swimming test started. Forced swimming test: All CD1 mice in each group were separately and vertically put into the organic glass cylinder (40 cm×14 cm in diameter) with 15 cm-depth and 23° C. water. After recoding a video of each dose group and control group for 6 minutes, the accumulative immobility time within the following 4 minutes was compared between each group. […] The laboratory results were all expressed by “mean value±SE”; two sample means were compared by t test.

[2] = system: CD1 male mice; test: Mice tail suspension test (animal depression model)
Method: In the mice tail suspension test, mice present the special quiet immobility state without any struggle in the tail suspension state, and antidepressant drugs can obviously shorten the duration of the immobility state. When tested, mice tails are fixed with clips, hanging upside-down. […] The time of immobility is recorded. The immobility indicator is “animal has no body movement in addition to breathing”. […] Laboratory Animal: CD1 mice, male, 25 g˜35 g, provided by Beijing Vital River Laboratories (VRL) (License No.: SCXK (Beijing), 2011-0011). Animals were kept in separate cages with free access to water; feed is provided by Laboratory Animal Center, Institute of Genetics and Developmental Biology, Chinese Academy of Sciences; laboratory mice ate ordinary feed. […] Drugs were delivered at 10 a.m. by intraperitoneal injection, 90 minutes after which tail suspension test statistics started. In mice tail suspension test, mice tails were stuck to a horizontal rail with tape 2 cm away from the tail tip, making animals upside down, whose heads were about 15 cm from the desktop. After observing for 6 minutes, the accumulative immobility time within the following 4 minutes was recorded. The immobility indicator was “animal has no body movement in addition to breathing”. Statistical Method: The laboratory results were all expressed by “mean value±SE”; two sample means were compared by t test.

[3] = system: CD1 male mice; test: Mice open field test to verify central excitability; conditions: measuring time 1 h/mouse, control 424.15+82.78 s, Anova p>0.05, N=12
From the text: Laboratory materials and methods are the same as Example 1 and Example 2.
Considering that the reduced immobility time of animals in classic animal depression models may be due to the central excitability effect of drugs, we conducted a mice open field test to verify the central excitability of cordycepin. Mice were processed 1 d before the open field behavior test. They were kept in the open box with 80 cm in both length and width, 40 cm in height, black wall, 16 equal sections in area, and indoor sound insulation. After the test started, mice were put in the middle of the box, and the time of mice staying in the central 4 sections was taken as a parameter. The measuring time was 1 h/mouse every time. […] Besides, there is no rising trend, so for cordycepin, the possibility of causing the manic state can be ruled out.

[4] = high-dose 12.5 mg/kg i.p. once a day for 3 days
[5] = low-dose 5 mg/kg i.p. once a day for 3 days

Q: Which results are given for `Nc1ncnc2c1ncn2[C@@H]1O[C@H](CO)C[C@H]1O` [cordycepin, 3′-deoxyadenosine]?
A: antidepressant effect compared with imipramine (15 mg/kg) [1, 4]: stronger antidepressant effects; decrease of forced swimming immobility time vs blank control [1, 4]: 68.8%; forced swimming immobility time within 4 minutes [1, 4]: 34.94 ± 12.16 s; decrease of forced swimming immobility time vs blank control [1, 5]: 37.6%; forced swimming immobility time within 4 minutes [1, 5]: 69.88 ± 10.25 s; time needed for antidepressant effect to be very obvious ([2]; high-dose 12.5 mg/kg i.p.): 1.5 h; decrease of tail suspension immobility time vs blank control ([2]; high-dose 12.5 mg/kg i.p., 90 min after injection): 60.8%; tail suspension immobility time ([2]; high-dose 12.5 mg/kg i.p., 90 min after injection, blank control 86.43±20.37 s, mean±SE, P<0.05): 33.86 ± 7.46 s; tail suspension immobility time vs control ([2]; low-dose 5 mg/kg i.p., 90 min after injection): has not been significantly reduced; time staying in the central 4 sections ([3]; high-dose group): 379.88+95.28 s; time staying in the central 4 sections ([3]; low-dose group): 399.75+72.25 s
